According to article PMC7855930, “Nontoxic Cobalt(III) Schiff Base Complexes with Broad‐Spectrum Antifungal Activity” (Chemistry (Weinheim an Der Bergstrasse, Germany), 2020):

Key:
[1] = Stability in water by 1H NMR (axial ligand exchange); type: physicochemical; conditions: room temperature
Source text: Because our previous results had shown that complexes bearing weak axial donors are more biologically active, we sought to synthesise a very labile Co^III‐bis(thiosemicarbazone) complex by using a weakly donating pyridine axial monodentate ligand. We were unable to synthesise a complex using unsubstituted pyridine, probably because it is a such a weak donor ligand that it will not remain bound to the Co^III center even briefly, preventing isolation of the complex. However, we were able to isolate a complex (3) bearing the more electron‐donating 4‐(dimethylamino)pyridine (DMAP) ligand in the axial positions. As expected, this complex is extremely labile. […] In our hands, the bis‐aqua complex could not be isolated.

C. neoformans = test: CO-ADD screening, broth microdilution MIC, yeast reference strain; type: cell-based
Source text: (§1) As previously mentioned, complexes 1, 2 and 4 were studied in earlier biological assays. […] In our CO‐ADD screening, using broth microdilution (BMD) MIC assays (Table S2), complexes 1–3 were effective at killing drug‐susceptible yeast reference strains of C. albicans and C. neoformans while displaying no antibacterial activity.

C. albicans = test: as above; type: cell-based
Source text: as §1

CO-ADD bacterial panel = test: CO-ADD bacterial panel, overall antibacterial activity; type: cell-based; conditions: CO‐ADD screening, Table S2
Experimental: CO-ADD High Throughput Screening
Bacterial broth microdilution minimum inhibitory concentration (MIC) assay Bacterial strains were cultured in Cation-adjusted Mueller Hinton broth (CAMHB; Bacto Laboratories 212322) at 37 °C overnight. A sample of each culture was then diluted 40-fold in fresh CAMHB and incubated at 37 °C for 1.5-3 h. The resultant mid-log phase cultures were diluted with CAMHB (CFU/mL measured by OD600), then added to each well of the compound-containing plates (384-well non-binding surface (NBS) plates; Corning CLS3640), giving a cell density of 5 × 10^5 CFU/mL and a total volume of 50 µL. Plates were covered and incubated at 37 °C for 18 h without shaking. Inhibition of bacterial growth was determined measuring absorbance at 600 nm (OD600), using media only as negative control and bacteria without inhibitors as positive control. MIC values were determined as the lowest concentration at which the growth was inhibited at ≥ 80%. Colistin sulfate (Sigma C4461) and vancomycin HCl (Sigma 861987) were used as positive inhibitor controls on each plate for Gram-negative and Gram-positive bacteria, respectively.
Figure S1. 1H NMR (400 MHz) of [Co(ATS)(DMAP)2]NO3 (3) in DMSO-d6.
(1 picture or pasted object on this page, not shown here)

Structure (SMILES) | Stability on dissolution in water ([1]; 1H NMR, on dissolution) | Stability in water overnight ([1]; incubation overnight) | Antifungal activity, C. neoformans reference strain (C. neoformans) | Antifungal activity, C. albicans reference strain (C. albicans) | Antibacterial activity (CO-ADD bacterial panel)
CC1=[N+]2N=C(N)[S][Co-3]23([n+]2ccc(N(C)C)cc2)([n+]2ccc(N(C)C)cc2)[S]C(N)=N[N+]3=C1C.O=[N+]([O-])[O-] [Compound 3, [Co(ATS)(DMAP)2]NO3] | immediately yields a mixture of species | totally converted into the bis‐aqua complex |  |  | 
O=[N+]([O-])[O-].[NH3+][Co-3]123([NH3+])[O]c4c(F)cccc4C=[N+]1c1ccccc1[N+]2=Cc1cccc(F)c1[O]3 [Compound 7, [Co(3F‐salophen)(NH3)2]NO3] |  |  | neither antibacterial nor antifungal activity | neither antibacterial nor antifungal activity | neither antibacterial nor antifungal activity
